Assay results taken from patent US8759318B2, “Phosphoramidate derivatives of guanosine nucleoside compounds for treatment of viral infections” (Inhibitex, Inc., priority 2009, dated 2014).

Legend:
[1] = test system: Bovine Viral Diarrhea Virus (BVDV) strain NADL; assay: Cytoprotection assay, BVDV; type: cell-based; conditions: Bovine viral diarrhea virus isolates and strains, MDBK
[2] = test system: Coxsackie virus strain B4; assay: Cytoprotection assay, Coxsackie virus; type: cell-based; conditions: Enterovirus B, B4, Vero
[3] = test system: Vaccinia Strain Western Reserve; assay: microbe, parasite or virus in culture; type: cell-based; conditions: Orthopoxvirus vaccinia, Vero C1008
HIV-1 Strain IIIB = assay: Cytoprotection assay for HIV; type: cell-based; conditions: Human immunodeficiency virus 1; HIV-1 IIIB, MT-4
Procedure: Activity against other viruses. A representative compound, Example 20, Compound F, was tested against a panel of other RNA and DNA viruses. Compound F was synthesized as described in the Experimental section. Experimental conditions for growing the cells and viruses are listed below. Unless otherwise indicated, cells and viruses were obtained from the American Type Culture Collection (ATCC, Rockville, Md.).
MT-4 cells ((Catalog #120) Human T-cell Leukemia) were obtained from the NIH AIDS Reference Reagent Program and were used in cytoprotection assays with HIV-1 Strain IIIB (Southern Research). They were grown in RPMI-1640 medium supplemented with 10% FBS.
Cytoprotection Assay for HIV:_MT-4 cells were sub-cultured one day prior to testing. Cells were plated in 96 well cell culture plates at a seeding density of 6×10^5 cells/ml (3×10^4 cells/well). […] Cytoprotection and compound cytotoxicity were assessed by XTT assay (Cat#11-465-015-001, Roche Diagnostics). The plates were read spectrophotometrically at 450/650 nm with a Molecular Devices SpectraMax M2 plate reader. The percent reduction in viral CPE was determined and reported as IC50, CC50 and a calculated TI. Samples were evaluated for antiviral efficacy and cytotoxicity with triplicate measurements using 9 concentrations at 2-fold dilutions. […]

[4] = Cytotoxicity evaluation of the HCMV plaque reduction assay; type: cell-based; conditions: human, MRC-5 cells; MRC-5, HCMV AD169 assay
Procedure: MRC-5 cells ((ATCC CCL-171) embryonal lung fibroblast, diploid, human) were used in plaque reduction assays with HCMV Strain AD169 (ATCC VR-538) and in cytoprotection assays with Rhinovirus strain 1B. They were grown in EMEM supplemented with 10% FBS, 0.1 mM non-essential amino acids, 1.0 mM sodium pyruvate, 2.0 mM L-Glutamine, 100 units/ml Penicillin and 100 μg/ml Streptomycin.
HCMV Plaque Reduction Assay: MRC-5 cells were seeded at 75,000 cells/well in 24 well plates. The plates were incubated overnight at 37° C. and 5% CO2. The following day, media was aspirated and approximately 100 plaque forming units (pfu) of HCMV AD169 was added to 21 wells of each plate in a volume of 200 μL of assay medium (MRC-5 growth medium containing 2% FBS rather than 10% FBS). The remaining three wells of each plate served as cellular control wells and received 200 μL of assay medium without virus. […] After a six day incubation period, cell viability was determined using CellTiter 96 Aqueous One Solution (Promega Corporation). […] Adhesive plate sealers were used in place of the lids, the sealed plates were inverted several times to mix the soluble formazan product and the plate was read spectrophotometrically at 490 and 650 nm with a Molecular Devices Vmax plate reader. […] A therapeutic (selectivity) index (TI) for each active compound was determined by dividing the TC50 by the IC50.

[5] = Protide stability in normal plasma, cynomolgous monkey; type: in vitro ADME; conditions: 37° C.
Procedure: (§1) Selected nucleoside 5′-phosphoramidates were examined for stability in human, cynomolgous monkey, rat and mouse plasma at 37° C. at both 30 min and 90 min time points.
(§2) Protide Stability in Normal Plasma: Plasma samples were prepared for analysis as follows. 50 μl of each test sample were distributed a 96-well V-bottom plate. 200 μl of acetonitrile containing 10 ng/ml of an internal standard was added to each plasma sample. The precipitated samples were centrifuged at 2500 rpm, 4° C. for 20 minutes in a Sorvall RT6000S centrifuge (Thermo Scientific, Waltham Mass.) and 100 μl of supernatant from each sample was transferred into a 96 deep well plate followed by the addition of 100 μl H2O to each sample. Samples were covered, mixed well by vortexing and maintained at 2-8° C. before and during analysis. 15 μl of each test sample was analyzed for protide concentrations by liquid chromatography coupled to tandem mass spectrometry (LC-MS/MS). Liquid chromatography was performed with an Agilent 1100 Series HPLC system equipped with a Synergi 4 μm Polar-RP, 30×2.0 mm column (Phenomenex, Torrance, Calif.). The HPLC system was coupled to an API 4000 triple quadrupole mass spectrometer (Applied Biosystems, Framingham, Mass.). Mass spectrometry was performed in positive ion mode and data was analyzed using Analyst® v1.4.2 software (Applied Biosystems, Framingham, Mass.). Data was presented as the percentage of compound recovered as compared to the 0 time point control.

[6] = Protide stability in normal plasma, rat; type: in vitro ADME; conditions: 37° C.
Procedure: as §1, §2

[7] = Protide stability in normal plasma, mouse; type: in vitro ADME; conditions: 37° C.
Procedure: as §1, §2

[8] = Mouse PK: 2'-C-methylguanosine triphosphate levels in liver; conditions: 2'-C-methylguanosine triphosphate in mouse liver, 50 mg/kg PO

Compound `COc1nc(N)nc2c1ncn2C1O[C@H](COP(=O)(N[C@@H](C)C(=O)OCC(C)(C)C)Oc2cccc3ccccc23)[C@@H](O)[C@@]1(C)O` (stereo partly shown) [Example 20] has an EC50 [1] of 0.748 µM, an EC50 [2] greater than 10 µM and an EC50 [3] of 4.52 µM. The EC50 (HIV-1 Strain IIIB) was greater than 10 µM, the CC50 at 6 days [4] was 1.57 µM and the “% Compound Remaining Compared to %100 Acetonitrile Control” value ([5]; 30 min) was 97.0%. For the same compound, the “% Compound Remaining Compared to %100 Acetonitrile Control” value ([5]; 1.5 h) was 94.0%, the “% Compound Remaining Compared to %100 Acetonitrile Control” value ([6]; 30 min) was 0% and the “% Compound Remaining Compared to %100 Acetonitrile Control” value ([6]; 1.5 h) was 0%. The “% Compound Remaining Compared to %100 Acetonitrile Control” value ([7]; 30 min) was 0%, the “% Compound Remaining Compared to %100 Acetonitrile Control” value ([7]; 1.5 h) was 0% and the AUC0-6 [8] was 31940 ng·h/g. For the same compound, the AUC0-24 [8] was 59353 ng·h/g.
